Results: patent publication US8067422B2, “Crystal form of phenylamino pyrimidine derivatives” (Natco Pharma Limited, priority 2008, dated 2011)
Entries after “also recorded” stand apart in the source; their conditions may differ.

Tests used:
[1] = system: Baf3 murine leukemia cells (M351T); assay: Blast cell count in nude mice implanted with Baf3 M351T cells; format: in vivo; details: Baf3M351T; Imatinib 10 mg/kg, AN019 20 mg/kg, AN024 20 mg/kg, oral gavage or ip; day 42
Text: Blood smears were obtained via the tail vein or via the femoral vein every 6th day and blast cells counted and graphically represented.
Abdominal swelling and decrease in activity was monitored daily, blood smear taken via the tail vein or the femoral vein every 6th day and H&E stained as per standard protocols. 42 days after implantation, mice were sacrificed and spleens harvested.
Nude mice were intraperitoneally implanted with Baf3 mutant cells (wt, T315I, M351T or E255K). […] Blood was drawn from the femoral vein or tail vein every 6th day and blast cell count determined and graphically represented.

in vivo [2] = details: mouse
[3] = system: MDAMB231 breast cancer cells; assay: Matrigel invasion assay (modified Boyden chamber), MDA-MB-231; format: cell-based; details: MDA-MB-231
Protocol: (§1) The in vitro invasiveness of 4910, 5310 and U87 glioma cells and MDAMB231 and ZR71 breast cancer cells in the presence of specified concentrations of compounds were assessed using a modified Boyden chamber assay. Cells were treated with these compounds for 48 h. 1×10^6 cells were suspended in 600 μl of serum-free medium supplemented with 0.2% BSA and placed in the upper compartment of the transwell chambers (Corning Costar Fischer Scientific Cat #07-200-158, Pittsburgh Pa.) coated with Matrigel (0.7 mg/ml). The lower compartment of the chamber was filled with 200 μl of serum medium and the cells were allowed to migrate for 24 h. After incubation, the cells were fixed and stained with Hema-3 and quantified as previously described (Mohanam et al. 1993). The migrated cells were imaged microscopically to determine the reduction in invasiveness induced by the compounds of this invention.

U87 glioma cells [4] = assay: In vitro angiogenic assay, U87 conditioned media on human dermal endothelial cells; format: cell-based
Protocol: (§2) The in vitro angiogenesis of 4910, 5310 and U87 glioma cells and MDAMB231 and ZR71 breast cancer cells in the presence of specified concentrations of compounds were determined as follows, cells (2×10^4/well) were seeded in 8-well chamber slides and were treated with various concentrations of test compounds. After a 24 h incubation period, the conditioned media was removed and added to a 4×10^4 human dermal endothelial cell (monolayer in 8-well chamber slides) and the human dermal endothelial cells were allowed to grow for 72 h. Cells were then fixed in 3.7% formaldehyde and stained with H&E and photographed.

[5] = system: K562 luciferase expressing cells; assay: Leukemic survival study in nude mice implanted with K562 luciferase expressing cells; format: in vivo
Text: K562 luciferase expressing cells were implanted intraperitoneally into nude mice; the mice were scanned using the xenogeny IVIS image station after ip injections of luciferin does determine implantations. Drug treatment was started as in previous studies day 15 after implantation. The animals were given treatment till day 42, after which drug treatment was stopped and survival of the animals determined as per the animal care regulations. […] Drug treatment was withdrawn on day 42 post implantation and survival of animals determined.

5310 glioma cells = assay: In vitro angiogenic assay, 5310 conditioned media on human dermal endothelial cells; format: cell-based; details: 5310 cells
Protocol: as §2

U87 glioma cells [6] = assay: Matrigel invasion assay (modified Boyden chamber), U87; format: cell-based; details: U87
Protocol: as §1

ZR71 breast cancer cells = assay: In vitro angiogenic assay, ZR-71 conditioned media on human dermal endothelial cells; format: cell-based; details: ZR-71 cells; radiation not distinguished
Protocol: as §2

[7] = system: pAKT and pERK in glioma and breast cancer cells; assay: Western blot analysis, pAKT and pERK (cell line not specified); format: cell-based; details: both with and without radiation
Protocol: (§3) Western blot analysis of 4910, 5310 and U87 glioma cells and MDAMB231 and ZR71 breast cancer cells in the presence of specified concentrations of compounds were assessed as per standard protocols. Cells were treated with AN019, AN024 or Temozolomide at the specified concentrations. 24 h after treatment, cells were collected and cell lysates extracted. Equal quantities of proteins were fractionated by SDS-PAGE. The fractionated proteins were blotted on to nylon membranes and immunoprobed for AKT, ERK and Pi3k. Breast cancer cell protein isolates were additionally immunoprobed for EGFR, ErbB1, ErbB2 and ErbB3.

4910 glioma cells [8] = assay: Matrigel invasion assay (modified Boyden chamber), 4910; format: cell-based, human
Protocol: as §1

in vivo [9] = details: mouse, po
[10] = system: AKT, ERK and Pi3k in ZR71 breast cancer cells; assay: Western blot analysis, ZR71; format: cell-based
Protocol: as §3

K562 cells [11] = assay: Anti-CML activity in nude mice implanted with K562 cells (leukemia growth index); format: in vivo; details: ip injections
Text: Nude mice (nu/nu) were implanted with K562 cells (1×10^6) via tail vein.
Blood was drawn via the tail vein. Quantitative analysis of LGI was graphically represented.

K562 cells [12] = assay: Spleenic enlargement and spleen Crk immunocytochemistry in K562 implanted nude mice; format: in vivo; details: ip injections
Protocol: Control mice were sacrificed on day 42 when secondary leukemia symptoms were observed, such as abdominal swelling and lack of circulation in the peripherals causing loss of digits with red spots under the skin surface. Spleen and any secondary tumors were harvested, fixed in formaldehyde and paraffin embedded as per standard protocols. Paraffin section were obtained and processed for immunocytochemistry. The rehydrated sections were treated with 0.3% H2O2 to inactivate any native peroxidases prior to immuno-probing. The sections were blocked with filter sterilized (0.22 μm) 1% BSA-PBS at room temperature for 1 h. Following blocking, the sections were immuno-probed with a human specific anti-Crk monoclonal primary antibody raised in rabbit against a synthetic peptide corresponding to residues in the SH2 domain, near the N-term of human CrkL protein (Abcam, Cambridge, Mass., USA) in 1% BSA-PBS overnight. Secondary antibody (anti-rabbit) conjugated to HRP was used to detect the presence of primary antibody. The sections were briefly rinsed three times in PBS solution after immuno-probing with secondary antibody, and DAB HRP substrate was added per manufacture's instructions (Sigma St Louis Mo. USA). The reaction was allowed to proceed until sharp contrast between positive and negative controls was observed. For negative controls primary antibody were eliminated. Leukemic mice spleen served as positive controls.
Mice were sacrificed after a decrease in LGI was observed and spleen harvested. […] Control mice also developed random subcutaneous tumors showing Crk expression, indicative of the presence of K562 cells.

K562 = assay: ED50 (po) in leukemic mice (K562)
4910 glioma cells [13] = assay: In vitro angiogenic assay, 4910 conditioned media on human dermal endothelial cells; format: cell-based; details: 4910 cells
Protocol: as §2

## Cc1ccc(NC(=O)c2cc(C(F)(F)F)cc(C(F)(F)F)c2)cc1Nc1nccc(-c2cccnc2)n1 [AN019, (3,5-bis trifluoromethyl)-N-[4-methyl-3-(4-pyridin-3yl-pyrimidin-2ylamino)-phenyl]-benzamide]
[1]
  Blast cell count in blood smears: significant decrease in blast cell count
In vivo [2]
  MTD: 500 mg/kg
[3]
  ±Change in invasion after radiation: −30%
U87 glioma cells [4]; after radiation
  Inhibition of angiogenesis: significant retardation in angiogenesis
U87 glioma cells [4]; without radiation
  Inhibition of angiogenesis: significant retardation in angiogenesis
[5]; drug treatment withdrawn on day 42
  Blast cell count from blood smears, effectiveness after withdrawal of drug treatment: showed effectiveness after withdrawal of drug treatment
[5]; treatment day 15 to day 42, then withdrawn, 10 animals
  Mortality: did not show any mortality
5310 glioma cells; after radiation
  Inhibition of angiogenesis: inhibition of angiogenesis was greater in control conditions than after radiation treatment
5310 glioma cells; control conditions (without radiation)
  Inhibition of angiogenesis: inhibition of angiogenesis was greater in control conditions than after radiation treatment
U87 glioma cells [6]
  ±Change in invasion after radiation: 0%
ZR71 breast cancer cells
  Inhibition of angiogenesis: complete inhibition of angiogenesis
[7]
  pERK levels (Western blot): reduced significantly
4910 glioma cells [8]; 4910
  ±Change in invasion after radiation: −27%
4910 glioma cells [8]; 4910, with radiation, 48 h treatment
  +Radiation % Invasion: 15%
In vivo [9]
  LD50: 1130 mg/kg
[10]; ZR71, after radiation
  AKT levels (Western blot): enhanced after radiation
[10]; ZR71, unirradiated
  AKT levels (Western blot): decrease in AKT levels
[10]; ZR71, with radiation
  PI3k levels (Western blot): absent
[10]; ZR71, without radiation
  PI3k levels (Western blot): absent
K562 cells [11]
  Physiological, phenotypic or behavioral abnormality: no abnormal physiological, phenotypic or behavioral abnormality
K562 cells [12]
  Crk expression in spleen (immunohistochemistry): basal levels of Crk expression; also recorded: only basal level expression
  Spleenic enlargement (gross observation): did not show any spleenic enlargement
K562; Leukemic mice (K562)
  Therapeutic index - LD50/ED50: 98.5
K562; Mus musculus, K562, po, read-out: ED50 (po) Mice
  ED50: 11.5 mg/kg
4910 glioma cells [13]; after radiation
  Inhibition of angiogenesis: increase in angiogenic inhibition
4910 glioma cells [13]; without radiation
  Inhibition of angiogenesis: inhibition of angiogenesis similar to MDA-MB-231 cells
